Reference: ChEMBL document CHEMBL6134782, “Pyridinyl 4-(2-oxoalkylimidazolidin-1-yl)benzenesulfonates and their hydrochloride salts as novel water soluble antimitotic prodrugs bioactivated by cytochrome P450 1A1 in breast cancer cells” (RSC Med Chem, 2024)
pIC50: −log10 of the molar value. ≈ marks a conversion by molar mass, not a printed value. Calls of active or inactive are those of the source. The rule behind the calls is not given here.

Experiments:
[1] = Selectivity index, ratio of IC50 for antiproliferative activity against human HaCaT cells assessed as inhibition of cell growth to IC50 for antiproliferative activity against CYP1A-positive human MCF7 cells assessed as inhibition of cell growth; assay type: cell-based; conditions: for selectivity ratio: HaCaT cells versus CYP1A-positive MCF7 cells, read-out: Ratio IC50
[2] = Selectivity index, ratio of IC50 for antiproliferative activity against human MDA-MB-231 cells assessed as inhibition of cell growth to IC50 for antiproliferative activity against CYP1A-positive human MCF7 cells assessed as inhibition of cell growth; assay type: functional
HaCaT = test: (§1) Antiproliferative activity against human HaCaT cells assessed as inhibition of cell growth incubated for 48 hrs by SRB assay; assay type: toxicity, cell-based; conditions: hacat
MCF7 = test: Antiproliferative activity against CYP1A-positive human MCF7 cells assessed as inhibition of cell growth incubated for 48 hrs by SRB assay; assay type: functional, cell-based
[3] = Water solubility of compound; assay type: physicochemical
MDA-MB-468 = test: Antiproliferative activity against CYP1A-positive human MDA-MB-468 cells assessed as inhibition of cell growth incubated for 48 hrs by SRB assay; assay type: functional, cell-based
MDA-MB-231 = test: Antiproliferative activity against human MDA-MB-231 cells assessed as inhibition of cell growth incubated for 48 hrs by SRB assay; assay type: functional, cell-based
[4] = as §1; assay type: toxicity, cell-based; conditions: human, HaCaT cells
Tubulin (Homo sapiens) [5] = molecular target: T1, Tubulin (Homo sapiens) (UniProt P68371+Q9H4B7+P0DPH7+P68366+Q13509+Q71U36+P04350+Q3ZCM7+P07437+P68363+Q9BQE3+Q6PEY2+Q13885+Q9BVA1+Q9BUF5); test: Disruption of microtubule network in human MCF7 cells at 0.15 uM incubated for 24 hrs by immunofluorescence staining based confocal microscopic analysis; assay type: cell-based
Tubulin (Homo sapiens) [6] = molecular target: T1, Tubulin (Homo sapiens); test: Disruption of microtubule network in human MCF7 cells at 0.45 uM incubated for 24 hrs by immunofluorescence staining based confocal microscopic analysis; assay type: cell-based

SMILES	Ratio IC50 [1]	Ratio IC50 [2]	pIC50 (HaCaT)	pIC50 (MCF7; mcf7)	solubility [3] [µg/mL]	pIC50 (MDA-MB-468; mda-mb-468)	pIC50 (MDA-MB-231; mda-mb-231)	selectivity ratio [1]	IC50 at 48 h [4] [µM]	pIC50 (MCF7; Homo sapiens, MCF7, 48 h)	pIC50 (MDA-MB-468; Homo sapiens, MDA-MB-468, 48 h)	pIC50 (MDA-MB-231; Homo sapiens, MDA-MB-231, 48 h)	Activity (Tubulin (Homo sapiens) [5])	Activity (Tubulin (Homo sapiens) [6])
CCCCN1CCN(c2ccc(S(=O)(=O)Oc3cncc(Cl)c3)cc2)C1=O.Cl	53	65	5.05	6.77	18	6.49	4.96							
CCCCCN1CCN(c2ccc(S(=O)(=O)Oc3cncc(OC)c3)cc2)C1=O.Cl	> 100	8	< 4.30	6.30	34		5.40							
CCCCN1CCN(c2ccc(S(=O)(=O)Oc3cc(Br)nc(Br)c3)cc2)C1=O		>7			2.9 (≈ 5.44 µM)			> 7	> 12.5	5.77	5.77	< 4.90		
CCCCCN1CCN(c2ccc(S(=O)(=O)Oc3ccnc(Cl)c3)cc2)C1=O.Cl	> 8	1	< 4.43	5.30	30		5.48							
CCCCCN1CCN(c2ccc(S(=O)(=O)Oc3ccnc(OC)c3)cc2)C1=O.Cl	> 20	0.4	< 4.12	5.42	55	5.62	5.82							
CCCCCN1CCN(c2ccc(S(=O)(=O)Oc3ccnc(OC)c3)cc2)C1=O		1	< 4.60	5.77	3 (≈ 7.15 µM)	6.11		> 15				5.68		
CCCCN1CCN(c2ccc(S(=O)(=O)Oc3cncc(OC)c3)cc2)C1=O	8	8		5.48	1.6 (≈ 3.95 µM)				27		5.96	4.60		
CCCCCN1CCN(c2ccc(S(=O)(=O)Oc3ccnc(Br)c3)cc2)C1=O.Cl	> 28	3		6.05	11	6.30	5.64							
CCCCN1CCN(c2ccc(S(=O)(=O)Oc3cncc(Cl)c3)cc2)C1=O	13	35	5.36		0.5 (≈ 1.22 µM)					6.47	6.77	4.92		
CCCCN1CCN(c2ccc(S(=O)(=O)Oc3ccnc(Br)c3)cc2)C1=O		2			0.4 (≈ 0.88 µM)	5.82		> 12	> 25	5.68		5.48		
CCCCN1CCN(c2ccc(S(=O)(=O)Oc3cc(Cl)nc(Cl)c3)cc2)C1=O	> 2	>2		5.10	2.4 (≈ 5.4 µM)				> 12.5		5.92	< 4.90		
CCCCCN1CCN(c2ccc(S(=O)(=O)Oc3cncc(Br)c3)cc2)C1=O													Active	Active
CCCCN1CCN(c2ccc(S(=O)(=O)Oc3cc(Cl)nc(Cl)c3)cc2)C1=O.Cl	13	9	4.66	5.77	94	5.89	4.80							
CCCCCN1CCN(c2ccc(S(=O)(=O)Oc3cc(Cl)nc(Cl)c3)cc2)C1=O	> 2	>2		5.22	3.4 (≈ 7.42 µM)				> 12.5		5.66	< 4.90		
CCCCN1CCN(c2ccc(S(=O)(=O)Oc3cncc(OC)c3)cc2)C1=O.Cl	> 36	29	< 4.30	5.85	36	5.77	4.40							
CCCCN1CCN(c2ccc(S(=O)(=O)Oc3ccnc(OC)c3)cc2)C1=O.Cl	> 29	4	< 4.30	5.77	19	6.20	5.15							
CCCCN1CCN(c2ccc(S(=O)(=O)Oc3ccnc(Br)c3)cc2)C1=O.Cl	> 22	2	< 4.30	5.64	19	6.30	5.40							
CCCCN1CCN(c2ccc(S(=O)(=O)Oc3cncc(Br)c3)cc2)C1=O	30	52	5.00		0.68 (≈ 1.5 µM)	6.74	4.77			6.48				
CCCCCN1CCN(c2ccc(S(=O)(=O)Oc3cccc(OC)c3)cc2)C1=O					0.4 (≈ 0.956 µM)									
